According to patent US12208088B2 (Genentech, Inc., priority 2018, dated 2025):

biological target: HPK1 (Homo sapiens (Human), UniProt Q92918); test: HPK1 Lantha binding assay ("Lanth"); conditions: binding assays; Morrison Ki fit
Procedure, shortened: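 TR-FRET binding competition using 2 nM HPK1, 2 nM Eu-anti-GST antibody and 15 nM Tracer222 at 23 °C. Compound was incubated 1 h with enzyme and antibody, then 1 h after tracer addition, with an 11-point 5-fold dilution series. Ki obtained from a Morrison fit that corrects for tracer concentration and Kd.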

HPK1, sequence (Q92918 1-346 limits assumed): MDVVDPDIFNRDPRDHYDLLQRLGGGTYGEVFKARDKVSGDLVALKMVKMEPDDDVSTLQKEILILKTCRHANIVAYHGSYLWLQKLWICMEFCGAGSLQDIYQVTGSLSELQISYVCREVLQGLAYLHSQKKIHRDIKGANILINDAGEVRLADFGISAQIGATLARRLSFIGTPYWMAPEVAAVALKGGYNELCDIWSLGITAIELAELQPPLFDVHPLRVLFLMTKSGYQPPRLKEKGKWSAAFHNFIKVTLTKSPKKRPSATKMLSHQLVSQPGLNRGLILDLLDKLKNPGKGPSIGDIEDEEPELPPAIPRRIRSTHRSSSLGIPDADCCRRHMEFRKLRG

In order of rising Ki:
1. CN(C)C(=O)c1c(N)ccc(-c2cnc3c(c2Cl)C2(CCC2)CN3)c1F [Compound 37, 6-Amino-3-(4′-chloro-1′,2′-dihydrospiro[cyclobutane-1,3′-pyrrolo[2,3-b]pyridin]-5′-yl)-2-fluoro-N,N-dimethylbenzamide]  2.2 nM
2. CN(CCO)C(=O)c1c(N)ccc(-c2cnc3c(c2Cl)C2(CCC2)CN3)c1F [Compound 44, 6-Amino-3-(4′-chloro-1′,2′-dihydrospiro[cyclobutane-1,3′-pyrrolo[2,3-b]pyridin]-5′-yl)-2-fluoro-N-(2-hydroxyethyl)-N-methylbenzamide]  4.4 nM
3. CN(CCO)C(=O)c1c(N)ccc(-c2cnc3c(c2Cl)C2(CC2)CN3)c1F [Compound 36, 6-Amino-3-(4′-chloro-1′,2′-dihydrospiro[cyclopropane-1,3′-pyrrolo[2,3-b]pyridin]-5′-yl)-2-fluoro-N-(2-hydroxyethyl)-N-methylbenzamide]  4.7 nM
4. Nc1cc(-c2cnc3c(c2Cl)C2(CC2)CN3)cc(-c2ncccc2CO)c1 [Compound 34, (2-(3-Amino-5-(4′-chloro-1′,2′-dihydrospiro[cyclopropane-1,3′-pyrrolo[2,3-b]pyridin]-5′-yl)phenyl)pyridin-3-yl)methanol]  6.15 nM
5. CN(C)C(=O)c1c(N)ccc(-c2cnc3c(c2Cl)C2(CCCC2)CN3)c1F [Compound 27, 6-Amino-3-(4′-chloro-1′,2′-dihydrospiro[cyclopentane-1,3′-pyrrolo[2,3-b]pyridin]-5′-yl)-2-fluoro-N,N-dimethylbenzamide]  6.71 nM
6. CN(C)C(=O)c1c(N)ccc(-c2cnc3c(c2Cl)C2(CC=CC2)CN3)c1F [Compound 28, 6-Amino-3-(4′-chloro-1′,2′-dihydrospiro[cyclopentane-1,3′-pyrrolo[2,3-b]pyridin]-3-en-5′-yl)-2-fluoro-N,N-dimethylbenzamide]  6.95 nM
7. CN(C)C(=O)c1c(N)ccc(-c2cnc3c(c2Cl)[C@]2(CC[C@H](O)C2)CN3)c1F [Compound 38c, 6-Amino-3-((1R,3S)-4′-chloro-3-hydoxy-1′,2′-dihydrospiro[cyclopentane-1,3′-pyrrolo[2,3-b]pyridin]5′-yl)-2-fluoro-N,N-dimethylbenzamide]  8.47 nM
8. Cn1cccc(-c2cccc(-c3cnc4c(c3Cl)C3(CC3)CN4)c2)c1=O [Compound 57, 3-(3-(4′-Chloro-1′,2′-dihydrospiro[cyclopropane-1,3′-pyrrolo[2,3-b]pyridin]-5′-yl)phenyl)-1-methylpyridin-2(1H)-one]  9.06 nM
9. Nc1ccc(-c2cnc3c(c2Cl)C2(CC2)CN3)cc1C(=O)N1C2CCC1CC2 [Compound 32, (2-Amino-5-(4′-chloro-1′,2′-dihydrospiro[cyclopropane-1,3′-pyrrolo[2,3-b]pyridin]-5′-yl)phenyl)(7-azabicyclo[2.2.1]heptan-7-yl)methanone]  12.8 nM
10. CN(C)C(=O)c1c(N)ccc(-c2cnc3c(c2Cl)C2(CN3)Cc3ccncc3C2)c1F (stereo not shown) [Compound 40, 6-Amino-3-(4′-chloro-1′,2′,5,7-tetrahydrospiro[cyclopenta[c]pyridine-6,3′-pyrrolo[2,3-b]pyridin]-5′-yl)-2-fluoro-N,N-dimethylbenzamide]  15.3 nM
11. CN(C)C(=O)c1c(N)ccc(-c2cnc3c(c2Cl)C2(CN3)CC2CO)c1F (stereo not shown) [Compound 39, 6-Amino-3-(4′-chloro-2-(hydroxymethyl)-1′,2′-dihydrospiro[cyclopropane-1,3′-pyrrolo[2,3-b]pyridin]-5′-yl)-2-fluoro-N,N-dimethylbenzamide]  17.2 nM
12. COc1c(-c2ccc(N)c(C(=O)N(C)CCO)c2F)cnc2c1C1(CCC1)CN2 [Compound 52, 6-Amino-2-fluoro-N-(2-hydroxyethyl)-3-(4′-methoxy-1′,2′-dihydrospiro[cyclobutane-1,3′-pyrrolo[2,3-b]pyridin]-5′-yl)-N-methylbenzamide]  19 nM
13. CN(C)C(=O)c1c(N)ccc(-c2cnc3c(c2Cl)[C@]2(CC[C@@H](O)C2)CN3)c1F [Compound 38a]  24.2 nM
14. CN(C)C(=O)c1c(N)ccc(-c2cnc3c(c2Cl)[C@@]2(CN3)C[C@H]2CO)c1F [Compound 39a, 6-Amino-3-((1R,2R)-4′-chloro-2-(hydroxymethyl)-1′,2′-dihydrospiro[cyclopropane-1,3′-pyrrolo[2,3-b]pyridin]-5′-yl)-2-fluoro-N,N-dimethylbenzamide]  27.7 nM
15. COc1c(-c2ccc(N)c(C(=O)N(C)C)c2F)cnc2c1C1(CC1)CN2 [Compound 31, 6-Amino-2-fluoro-3-(4′-methoxy-1′,2′-dihydrospiro[cyclopropane-1,3′-pyrrolo[2,3-b]pyridin]-5′-yl)-N,N-dimethylbenzamide]  28.6 nM
16. Cc1c(-c2ccc(N)c(C(=O)N(C)C)c2F)cnc2c1C1(CCC1)CN2 [Compound 53, 6-Amino-2-fluoro-N,N-dimethyl-3-(4′-methyl-1′,2′-dihydrospiro[cyclobutane-1,3′-pyrrolo[2,3-b]pyridin]-5′-yl)benzamide]  28.9 nM
17. CN(CC(C)(C)O)C(=O)c1c(N)ccc(-c2cnc3c(c2)C2(CC2)CN3)c1F [Compound 29, 6-amino-3-(1′,2′-dihydrospiro[cyclopropane-1,3′-pyrrolo[2,3-b]pyridin]-5′-yl)-2-fluoro-N-(2-hydroxy-2-methylpropyl)-N-methylbenzamide]  30 nM
18. N#Cc1cc2c(-c3cnc4c(c3)C3(CC3)CN4)c[nH]c2cn1 [Compound 56, 3-(1′,2′-Dihydrospiro[cyclopropane-1,3′-pyrrolo[2,3-b]pyridin]-5′-yl)-1H-pyrrolo[2,3-c]pyridine-5-carbonitrile]  35.3 nM
19. CCN(CCO)C(=O)c1cccc(-c2cnc3c(c2Cl)C2(CC2)CN3)c1F [Compound 46, 3-(4′-Chloro-1′,2′-dihydrospiro[cyclopropane-1,3′-pyrrolo[2,3-b]pyridin]-5′-yl)-N-ethyl-2-fluoro-N-(2-hydroxyethyl)benzamide]  38.6 nM
20. CN(C)C(=O)c1c(N)ccc(-c2cnc3c(c2Cl)[C@]2(CN3)C[C@@H]2CO)c1F [Compound 39b, 6-Amino-3-((1S,2S)-4′-chloro-2-(hydroxymethyl)-1′,2′-dihydrospiro[cyclopropane-1,3′-pyrrolo[2,3-b]pyridin]-5′-yl)-2-fluoro-N,N-dimethylbenzamide]  40.5 nM
21. CN(CCO)C(=O)c1cccc(-c2cnc3c(c2Cl)C2(CC2)CN3)c1F [Compound 45, 3-(4′-Chloro-1′,2′-dihydrospiro[cyclopropane-1,3′-pyrrolo[2,3-b]pyridin]-5′-yl)-2-fluoro-N-(2-hydroxyethyl)-N-methylbenzamide]  43.7 nM
22. Cc1c(-c2ccc(N)c(C(=O)N(C)C)c2F)cnc2c1C1(CC1)CN2 [Compound 30, 6-Amino-2-fluoro-N,N-dimethyl-3-(4′-methyl-1′,2′-dihydrospiro[cyclopropane-1,3′-pyrrolo[2,3-b]pyridin]-5′-yl)benzamide]  53.9 nM
23. O=C(c1cccc(-c2cnc3c(c2Cl)C2(CC2)CN3)c1F)N1CC(O)C1 [Compound 49]  55.3 nM
24. CC(=O)Nc1cc(C#N)cc2c(-c3cnc4c(c3)C3(CC3)CN4)cn(C)c12 [Compound 54, N-(5-Cyano-3-(1′,2′-dihydrospiro[cyclopropane-1,3′-pyrrolo[2,3-b]pyridin]-5′-yl)-1-methyl-1H-indol-7-yl)acetamide]  64.4 nM
25. NC1CN(C(=O)c2cccc(-c3cnc4c(c3Cl)C3(CC3)CN4)c2F)C1 [Compound 51, (3-Aminoazetidin-1-yl)(3-(4′-chloro-1′,2′-dihydrospiro[cyclopropane-1,3′-pyrrolo[2,3-b]pyridin]-5′-yl)-2-fluorophenyl)methanone]  68.2 nM
26. OCc1cccnc1-c1cccc(-c2cnc3c(c2)C2(CC2)CN3)c1 [Compound 43, (2-(3-(1′,2′-Dihydrospiro[cyclopropane-1,3′-pyrrolo[2,3-b]pyridin]-5′-yl)phenyl)pyridin-3-yl)methanol]  81.5 nM
27. O=C1NCCN1c1cccc(-c2cnc3c(c2Cl)C2(CC2)CN3)c1 [Compound 55, 1-(3-(4′-Chloro-1′,2′-dihydrospiro[cyclopropane-1,3′-pyrrolo[2,3-b]pyridin]-5′-yl)phenyl)imidazolidin-2-one]  84.7 nM
28. O=C(c1cccc(-c2cnc3c(c2Cl)C2(CC2)CN3)c1F)N(CCO)CCO [Compound 47, 3-(4′-Chloro-1′,2′-dihydrospiro[cyclopropane-1,3′-pyrrolo[2,3-b]pyridin]-5′-yl)-2-fluoro-N,N-bis(2-hydroxyethyl)benzamide]  88.5 nM
29. CN(C)C(=O)c1c(N)ccc(-c2cnc3c(c2)C2(CN3)CC2(C)C)c1F (stereo not shown) [Compound 24, 6-Amino-3-(2,2-dimethyl-1′,2′-dihydrospiro[cyclopropane-1,3′-pyrrolo[2,3-b]pyridin]-5′-yl)-2-fluoro-N,N-dimethylbenzamide]  88.7 nM
30. O=C1CNCCN1c1cccc(-c2cnc3c(c2)C2(CC2)CN3)c1 [Compound 42, 1-(3-(1′,2′-Dihydrospiro[cyclopropane-1,3′-pyrrolo[2,3-b]pyridin]-5′-yl)phenyl)piperazin-2-one]  100 nM
31. CC(=O)NC1CN(C(=O)c2cccc(-c3cnc4c(c3Cl)C3(CC3)CN4)c2F)C1 [Compound 50, N-(1-(3-(4′-Chloro-1′,2′-dihydrospiro[cyclopropane-1,3′-pyrrolo[2,3-b]pyridin]-5′-yl)-2-fluorobenzoyl)azetidin-3-yl)acetamide]  139 nM
32. O=C(c1cccc(-c2cnc3c(c2Cl)C2(CC2)CN3)c1F)N1CCNCC1 [Compound 48, (3-(4′-Chloro-1′,2′-dihydrospiro[cyclopropane-1,3′-pyrrolo[2,3-b]pyridin]-5′-yl)-2-fluorophenyl)(piperazin-1-yl)methanone]  151 nM
33. O=C1Nc2ccc(-c3cnc4c(c3)C3(CC3)CN4)cc2C1(O)C1CC1 (stereo not shown) [Compound 23, 3-cyclopropyl-5-(1′,2′-dihydrospiro[cyclopropane-1,3′-pyrrolo[2,3-b]pyridin]-5′-yl)-3-hydroxyindolin-2-one]  184 nM
34. CN(C)C(=O)c1c(N)ccc(-c2cnc3c(c2)C2(CN3)C3COCC32)c1F (stereo not shown) [Compound 26, 6-amino-3-(1′,2′-dihydro-3-oxaspiro[bicyclo[3.1.0]hexane-6,3′-pyrrolo[2,3-b]pyridin]-5′-yl)-2-fluoro-N,N-dimethylbenzamide]  446 nM
